Experimental data from PubChem BioAssay (NCI).
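A five-concentration, 48-hour dose response in 96-well plates underlies each endpoint, interpolated linearly between surrounding concentrations. TGI: concentration producing complete growth inhibition.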

Assays:
Experiment in all cases: NCI anticancer screen, dose series, 48 h
[1] = tested on: SK-MEL-5 melanoma
[2] = tested on: OVCAR-4 ovarian
[3] = tested on: 786-0 renal
[4] = tested on: TK-10 renal
[5] = tested on: NCI-H226 lung
[6] = tested on: NCI/ADR-RES ovarian
[7] = tested on: CAKI-1 renal
[8] = tested on: RPMI-8226 leukemia
[9] = tested on: COLO 205 colon
[10] = tested on: MCF7 breast
[11] = tested on: OVCAR-3 ovarian
[12] = tested on: OVCAR-8 ovarian

Row | SMILES | TGI [1] [µM] | TGI [2] [µM] | TGI [3] [µM] | TGI [4] [µM] | TGI [5] [µM] | TGI [6] [µM] | TGI [7] [µM] | TGI [8] [µM] | TGI [9] [µM] | TGI [10] [µM] | TGI [11] [µM] | TGI [12] [µM]
1 | CCN(/C=C1/C(=O)C(c2ccccc2)N(c2ccccc2)C1=O)CC (configuration not stated) | > 10 | > 10 | > 10 | > 10 | > 10 | > 10 | > 10 | > 10 | > 10 | > 10 | > 10 | > 10
2 | N#Cc1sc2nc3ccccc3n2c1N | > 100 | > 100 | > 100 | > 100 | > 100 | > 100 | > 100 | > 100 | > 100 | > 100 | > 100 | > 100
3 | Cc1nc2sc3cccc(Cl)c3n2c(=O)c1N=Nc1ccc(Cl)cc1 | > 100 | > 100 | > 100 | > 100 | > 100 | > 100 | > 100 | > 100 | > 100 | > 100 | > 100 | > 100
4 | COC(=O)C1CCC(=O)N1CN(C(C)=O)c1cccc(O)c1 (configuration not stated) | > 100 | > 100 | > 100 | > 100 | > 100 | > 100 | > 100 | > 100 | > 100 | > 100 | > 100 | > 100
5 | Cc1cccc2sc(NC(=O)NS(=O)(=O)n3cnc4ccccc43)nc12 | 56.3 | > 100 | > 100 | > 100 | > 100 | > 100 | > 100 | 84.3 | > 100 | > 100 | 46.8 | 67.1
6 | CC(C)C(Cl)CCC(C)(Cl)C(=O)CBr (configuration not stated) | 14.3 | 12.7 | 8.02 | 13.7 | 44.5 | 23.6 | 14.3 | 2.52 | 12 | 4.53 | 16.4 | > 100
7 | Cc1cc2nc3c(C#N)c(-c4ccccc4)/c(=C\Nc4ccc(F)cc4)c(=O)n3c2cc1C | > 100 | > 100 | > 100 | > 100 | > 100 | > 100 | > 100 | > 100 | > 100 | > 100 | > 100 | > 100
8 | COC(=O)/C=C(\C(=O)OC)c1cc(C)c2cc(C(C)C)ccc(C)c1-2 | 80 | > 100 | > 100 | > 100 | > 100 | > 100 | > 100 | > 100 | > 100 | 72.8 | > 100 | > 100
9 | COc1cc2nc(Cl)nc(NS(=O)(=O)c3cc4ccccc4s3)c2cc1OC | 37.9 | 88.1 | > 100 | > 100 | > 100 | > 100 | > 100 | 44.9 | > 100 | > 100 | 44.7 | > 100
10 | CCN(CC)CCNc1ccc([N+](=O)[O-])c2nc3ccc(OC)cc3c(NCCN(CC)CC)c12 | 2.98 | 3.1 | 1.56 | > 8.78 | 3.8 | 2.76 | 8.6 | > 4.4 | 1.59 | 2.71 | 4.95 | > 4.16
11 | Cc1nc2c(sc3nc4c(cc32)CCC4)c(=O)o1 | > 100 | 89 | > 100 | > 100 | > 100 | > 100 | > 100 | > 88.3 | > 100 | > 100 | > 100 | > 93.7
12 | COC(CN(C)C(=S)Nc1cccc2ccccc12)OC | > 10 | > 10 | > 10 | > 10 | > 10 | > 10 | > 10 | > 10 | > 10 | > 10 | > 10 | > 10
13 | Cc1ccc(N=N/C(=N/NC(=O)c2ccccc2)c2ccc(N(CCC#N)CCC#N)cc2C)cc1 | > 100 | > 100 | > 100 | > 100 | > 100 | > 100 | > 100 | > 100 | > 100 | > 100 | > 100 | > 100
14 | COc1ccccc1C1c2cc3c(cc2OC2(OC)COC(=O)C12)OCO3 (configuration not stated) | 59.3 | > 95.9 | 72.1 | > 92.4 | > 87.5 | > 100 | > 100 | 28.3 | 67.3 | > 65.7 | 69.3 | > 74.6
15 | CCCCCCCCCCCCCCCCCCNc1ccn(C2OC(COP(=O)(O)OCC3OC(n4ccc(N)nc4=O)C(O)C3O)C(O)C2O)c(=O)n1 (configuration not stated) | > 100 | > 100 | > 100 | > 100 | > 100 | > 100 | > 100 | > 100 | > 100 | > 100 | > 100 | > 62.2
16 | CN=c1sc2c(n1C)C(=O)c1ccccc1C2=O | 6.85 | 11 | 20.7 | 35.6 | 5.65 | 16.4 | 15.5 | 24.6 | 11.9 | 3.8 | 11.3 | 15.3
